{
  "source": "paper PMC8992272",
  "about": "“Stabilities of Three Key Biological Trisulfides with Implications for Their Roles in the Release of Hydrogen Sulfide and Bioaccumulation of Sulfane Sulfur” (ACS Omega, 2022)",
  "key": {"[1]": {"settings": "cited from earlier work"}, "[2]": {"settings": "no reference given, cited from earlier work"}, "[3]": {"experiment": "Equilibrium between di-, tri- and tetrasulfides in the presence of elemental sulfur (1H NMR)", "type": "physicochemical", "settings": "D2O with elemental sulfur and butylamine, after 4 days", "quoted_text": "To test this hypothesis, a reaction was completed in D2O with elemental sulfur, NAC disulfide, and butylamine.\nTo understand why the degradation leveled off, NAC trisulfide was dissolved in water, elemental sulfur was added, and the contents were heated to 40 °C.\nN-Acetylcysteine disulfide (9.3 mg, 23 μmol) was dissolved in 600 μL of D2O. Elemental sulfur (6.8 mg, 0.21 mmol) and butylamine (18.5 mg, 0.25 mmol) were added, and the ^1H NMR spectra were periodically obtained to track the equilibrium."}, "[4]": {"experiment": "Stability in water/D2O buffered at different pH values, tracked by 1H NMR", "type": "physicochemical", "settings": "for half-life: buffered water/D2O, read-out: estimated half-life (converted); for degradation: pH 5.8, 9 days", "description": "The ^1H NMR spectra of NAC and the disulfide, trisulfide, and tetrasulfide of NAC had peaks at unique values for chemical shifts and allowed for their easy characterization (Figure 3). Pure chemicals of each sulfide were synthesized and characterized by ^1H and ^13C NMR spectroscopy as well as by high-resolution mass spectroscopy. The unique chemical shifts of the peaks for the Ha and Hb/Hc protons on the sulfides allowed the integration of each sulfide to be determined.\nThe stability of NAC trisulfide in water buffered at pH values of 5.8, 7.4, and 9.0 was measured.\nThe stability of cysteine trisulfide was investigated in buffered water at pH values of 5.8, 7.0, and 9.0. […] At pH values of 5.8, 7.0, and 9.0, the cysteine trisulfide was soluble and its ^1H NMR spectra were obtained.\nThe stability of glutathione trisulfide was investigated at pH values of 5.8, 7.4, and 9.0 (Figure S14a). The degradation of glutathione trisulfide was more rapid at pH values of 5.8 and 7.4 than that of the trisulfides of NAC and cysteine. At an acidic pH of 5.8, 71% of glutathione trisulfide degraded after 10 days. At pH values of 7.4 and 9.0, glutathione trisulfide degraded 79 and 81%, respectively, at day 9. […] The degradation of glutathione trisulfide reached an equilibrium of approximately 20% with the disulfide due to the reaction catalyzed by amine with elemental sulfur. Rate constants and half-lives were obtained for the degradation of glutathione trisulfide at each pH value using early data points unaffected by the equilibrium. At pH values of 5.8, 7.4, and 9.0, the estimated half-lives were 6.3 days (151 h), 0.90 days (21.6 h), and 0.79 days (19.0 h), respectively (Figure S14b).\nThe stability of NAC tetrasulfide was investigated in D2O buffered at pH values of 5.8, 7.4, and 9.0 (Figure S16a). At a pH of 5.8, NAC tetrasulfide degraded by 13% after 9 days. At pH values of 7.4 and 9.0, the tetrasulfide degraded by 55 and 52%, respectively, after 9 days. At each pH, the degradation product was NAC trisulfide, elemental sulfur, and a small amount of NAC disulfide (<3%). […] Estimated rate constants and half-lives for the degradation of NAC tetrasulfide at each pH were obtained. At pH values of 5.8, 7.4, and 9.0, the estimated half-lives were 53.3, 7.5, and 8.2 days, respectively (Figure S16b)."}, "[5]": {"experiment": "Stability in nonbuffered D2O at room and elevated temperature (1H NMR)", "type": "physicochemical", "settings": "nonbuffered D2O", "procedure": "N-Acetylcysteine trisulfide (24.3 mg, 61 μmol) was dissolved in 500 μL of D2O and placed in a 40 °C oil bath. The ^1H NMR spectra were taken periodically to track degradation.\nN-Acetylcysteine trisulfide (24.3 mg, 61 μmol) was dissolved in 500 μL of D2O and placed in a 60 °C oil bath. The ^1H NMR spectra were taken periodically to track degradation.\nN-Acetylcysteine tetrasulfide (8.0 mg, 21 μmol) was dissolved in 600 μL of D2O. The ^1H NMR spectra were taken periodically to track degradation.\nN-Acetylcysteine tetrasulfide (10.0 mg, 26 μmol) was dissolved in 600 μL of D2O and placed in a 40 °C oil bath. The ^1H NMR spectra were taken periodically to track degradation."}, "[6]": {"experiment": "Stability in D2O in the presence of butylamine or triethylamine, tracked by 1H NMR", "type": "physicochemical", "settings": "for tetrasulfide present: butylamine and triethylamine; for degraded: after 1 day", "procedure": "N-Acetylcysteine trisulfide (26.5 mg, 66 μmol) was dissolved in 600 μL of D2O. Butylamine (5.0 mg, 68 μmol) was added, and the ^1H NMR spectra were taken periodically to track degradation.\nN-Acetylcysteine trisulfide (26.5 mg, 66 μmol) was dissolved in 600 μL of D2O. Triethylamine (8.0 mg, 79 μmol) was added, and the ^1H NMR spectra were taken periodically to track degradation.\nCysteine trisulfide (5.5 mg, 20 μmol) was added to 600 μL of D2O. The solution was filtered to remove undissolved particles. […] The ^1H NMR spectra were taken periodically to track degradation.\nCysteine trisulfide (4.3 mg, 16 μmol) was added to 600 μL of D2O. The solution was filtered to remove undissolved particles. […] The ^1H NMR spectra were taken periodically to track degradation.\nN-Acetylcysteine tetrasulfide (17.2 mg, 44 μmol) was dissolved in 600 μL of D2O. Butylamine (9.9 mg, 135 μmol) was added, and the ^1H NMR spectra were taken periodically to track degradation.\nN-Acetylcysteine tetrasulfide (17.2 mg, 44 μmol) was dissolved in 600 μL of D2O. Triethylamine (13.5 mg, 135 μmol) was added, and the ^1H NMR spectra were taken periodically to track degradation."}, "[7]": {"experiment": "Solubility observations", "type": "physicochemical"}, "[8]": {"experiment": "Stability in the presence of acetonitrile, benzamide, zinc sulfate or iron sulfate, or in methanol-d4 (1H NMR)", "type": "physicochemical", "settings": "3:1 mole ratio acetonitrile or benzamide, D2O, after 12 days", "procedure": "N-Acetylcysteine trisulfide (26.5 mg, 66 μmol) was dissolved in 600 μL of D2O. Acetonitrile (3.0 mg, 73 μmol) was added, and the ^1H NMR spectra were taken periodically to track degradation.\nN-Acetylcysteine trisulfide (31.4 mg, 78 μmol) was dissolved in 600 μL of D2O. Benzamide (9.4 mg, 78 μmol) was added, and the ^1H NMR spectra were taken periodically to track degradation.\nN-Acetylcysteine trisulfide (15.0 mg, 38 μmol) was dissolved in 600 μL of D2O. ZnSO4 (11.8 mg, 73 μmol) was added, and the ^1H NMR spectra were taken periodically to track degradation.\nN-Acetylcysteine trisulfide (15.0 mg, 38 μmol) was dissolved in 600 μL of D2O. FeSO4·7H2O (11.6 mg, 41 μmol) was added, and the ^1H NMR spectra were taken periodically to track degradation.\nN-Acetylcysteine trisulfide (32.1 mg, 80 μmol) was dissolved in 600 μL of CD3OD. The ^1H NMR spectra were taken periodically to track degradation.\nCysteine trisulfide (5.1 mg, 19 μmol) was added to 600 μL of D2O. Solution was filtered to remove undissolved particles. […] The ^1H NMR spectra were taken periodically to track degradation.\nCysteine trisulfide (6.8 mg, 25 μmol) was added to 600 μL of D2O. Solution was filtered to remove undissolved particles. […] The ^1H NMR spectra were taken periodically to track degradation."}},
  "note": "Read-outs that look alike come from different tables or passages of the source.",
  "data": [
    {"compound": "C=CCSSSCC=C", "note": "[DATS, diallyl trisulfide]", "values": [
      {"measurement": "degradation", "setting": "[1]; in the presence of glutathione (GSH)", "value": "degraded rapidly"},
      {"measurement": "stability", "setting": "[1]; micellar solution (propylene glycol, ethanol, Tween 80, water), pH 2.6 to 7.0, 15 min, HPLC", "value": "stable"},
      {"measurement": "stability", "setting": "[1]; neat, 4 °C, after 3 months, HPLC", "value": "stable"},
      {"measurement": "degraded", "setting": "[1]; neat, 35 °C, after 3 months, HPLC", "value": 30, "unit": "%"},
      {"measurement": "degraded", "setting": "[1]; neat, room temperature, after 3 months, HPLC", "value": 11, "unit": "%"},
      {"measurement": "stability", "setting": "[1]; same micellar solution, in the presence of antioxidants", "value": "not stable"}
    ]},
    {"compound": "CSSSC", "note": "[DMTS, dimethyl trisulfide]", "values": [
      {"measurement": "degradation", "setting": "[1]; neat, 4 and 22 °C, over 1 year", "value": "no degradation"},
      {"measurement": "degraded", "setting": "[1]; neat, 34 °C, over 1 year", "value": 70, "unit": "%"}
    ]},
    {"compound": "S", "note": "[H2S, hydrogen sulfide]", "values": [
      {"measurement": "pKa", "setting": "[2]", "value": 7.0}
    ]},
    {"compound": "CC(=O)N[C@@H](CSSC[C@H](NC(C)=O)C(=O)O)C(=O)O", "note": "[NAC disulfide, N-Acetylcysteine disulfide, reference compound]", "values": [
      {"measurement": "converted to trisulfide", "setting": "[3]", "value": 15, "unit": "%"}
    ]},
    {"compound": "CC(=O)NC(CSSSSCC(NC(C)=O)C(=O)O)C(=O)O", "note": "(centres unmarked) [NAC tetrasulfide, N-Acetylcysteine Tetrasulfide]", "values": [
      {"measurement": "half-life", "setting": "[4]; pH 5.8, pH 5.8", "value": 1280, "unit": "h"},
      {"measurement": "half-life", "setting": "[4]; pH 7.4, pH 7.4", "value": 180, "unit": "h"},
      {"measurement": "half-life", "setting": "[4]; pH 9, pH 9.0", "value": 197, "unit": "h"},
      {"measurement": "degradation", "setting": "[4]", "value": 13, "unit": "%"},
      {"measurement": "degraded", "setting": "[4]; pH 7.4, day 9", "value": 55, "unit": "%"},
      {"measurement": "degraded", "setting": "[4]; pH 9.0, day 9", "value": 52, "unit": "%"},
      {"measurement": "stability", "setting": "[1]; in the presence of thiols, released H2S", "value": "unstable"},
      {"measurement": "estimated rate constant", "setting": "[5]; 40 °C", "value": "8.7 × 10^–2 days^–1"},
      {"measurement": "degraded", "setting": "[5]; 40 °C, after 20 days", "value": 83, "unit": "%"},
      {"measurement": "degradation", "setting": "[5]; 40 °C, after 63 days", "value": 83, "unit": "%"},
      {"measurement": "half-life at 43 mM", "setting": "[5]; 40 °C, read-out: estimated half-life (converted)", "value": 192, "unit": "h"},
      {"measurement": "estimated rate constant", "setting": "[5]; room temperature", "value": "3.9 × 10^–2 days^–1"},
      {"measurement": "degraded", "setting": "[5]; room temperature, after 35 days", "value": 69, "unit": "%"},
      {"measurement": "half-life at 35 mM", "setting": "[5]; room temperature, read-out: estimated half-life (converted)", "value": 427, "unit": "h"},
      {"measurement": "half-life at 73 mM", "setting": "[6]; D2O with butylamine or triethylamine, in the presence of butylamine and triethylamine (both amines), read-out: upper limit of the half-life", "value": "≤ 1.6", "unit": "min"},
      {"measurement": "half-life", "setting": "[6]; D2O with butylamine, in the presence of butylamine (abstract), read-out: half-life", "value": "≤ 0.025", "unit": "h"},
      {"measurement": "tetrasulfide present", "setting": "[6]; after 5 min", "value": "less than 10%"},
      {"measurement": "tetrasulfide present", "setting": "[6]; after a day", "value": 4, "unit": "%"}
    ]},
    {"compound": "N[C@@H](CSSSC[C@H](N)C(=O)O)C(=O)O", "note": "[cysteine trisulfide, Cysteine Trisulfide]", "values": [
      {"measurement": "stability", "setting": "[4]; basic conditions (abstract)", "value": "unstable"},
      {"measurement": "half-life", "setting": "[4]; pH 7, pH 7.0", "value": 406, "unit": "h"},
      {"measurement": "half-life", "setting": "[4]; pH 9, pH 9.0", "value": 274, "unit": "h"},
      {"measurement": "degradation", "setting": "[4]", "value": "< 3", "unit": "%"},
      {"measurement": "degraded", "setting": "[4]; pH 7.0, after 13 days", "value": 40, "unit": "%"},
      {"measurement": "degraded", "setting": "[4]; pH 9.0, after 13 days", "value": 56, "unit": "%"},
      {"measurement": "solubility", "setting": "[7]; buffered water pH 5.8, 7.0 and 9.0", "value": "soluble"},
      {"measurement": "solubility", "setting": "[7]; buffered water pH 7.4", "value": "poorly soluble"},
      {"measurement": "degradation", "setting": "[8]", "value": "no observable degradation"},
      {"measurement": "half-life", "setting": "[6]; D2O with butylamine, in the presence of butylamine, D2O, early data points, read-out: estimated half-life of degradation (converted)", "value": 2.3, "unit": "h"},
      {"measurement": "half-life", "setting": "[6]; D2O with triethylamine, in the presence of triethylamine, D2O, early data points, read-out: estimated half-life of degradation (converted)", "value": 2.9, "unit": "h"},
      {"measurement": "trisulfide remaining (degradation leveled off)", "setting": "[6]; after 10 days in the presence of butylamine and triethylamine, D2O", "value": "approximately 20%"},
      {"measurement": "degraded", "setting": "[6]; in the presence of butylamine, D2O", "value": 63, "unit": "%"},
      {"measurement": "degraded", "setting": "[6]; in the presence of triethylamine, D2O", "value": 78, "unit": "%"}
    ]},
    {"compound": "N[C@@H](CS)C(=O)O", "note": "[cysteine]", "values": [
      {"measurement": "pKa", "setting": "[2]; ammonium group", "value": 10.8}
    ]},
    {"compound": "N[C@@H](CCC(=O)N[C@@H](CS)C(=O)NCC(=O)O)C(=O)O", "note": "[glutathione]", "values": [
      {"measurement": "pKa", "setting": "[2]; ammonium group", "value": 9.6}
    ]}
  ]
}
